The values that follow come from patent US20240000734A1, “PHARMACEUTICAL COMPOSITION HAVING AN ANALGAESIC AND AN ANTIHISTAMINE FOR TREATING RESPIRATORY DISEASES” (LABORATORIOS SILANES S.A. DE C.V., priority 2020, published 2024).

One series is described as follows: clinical. The note with it: both, human, in vivo, po, 800 mg.
The subject of series [1] is patients with uncomplicated acute bronchitis. The note with it: cited from earlier work; for Adverse events: P=0.008; for median number of days with cough: oral, placebo 11 days, not statistically significant.

A word on the Cmax: it is the maximum level reached in the sampled fluid or tissue. In general, Tmax refers to the time from dosing to the highest level. Broadly, the AUC is concentration integrated over time.

Regarding `CC(C)Cc1ccc(C(C)C(=O)O)cc1` (racemic) [Ibuprofen, (±)-2-(4-isobutylphenyl) propionic acid], in “clinical”, the peak level (Cmax) was 54.6 µg/mL and the Tmax came out at 1.35 ± 0.75 h. Besides, the AUC in “clinical” (AUC0^t) turned out to be 185 µg·h/mL. The exposure (AUC) in “clinical” (AUC0^∞) came to 192 µg·h/mL. Also, in series [1], the Adverse events is recorded as 5% and the “median number of days with cough” value is listed as 9 days.
For `CC1(C)S[C@@H]2[C@H](NC(=O)[C@H](N)c3ccc(O)cc3)C(=O)N2[C@H]1C(=O)O` [amoxicillin], in series [1], the Adverse events is 12% and the “median number of days with cough” value is reported as 11 days.
